This passage reports IC50 cell viability results from the supplement of paper PMC12325586.

This experiment concerns MIA PaCa-2. The protocol:
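MIA PaCa-2 Tet-on shOFD1 pancreatic cancer cells (2000 cells/well, 96-well) were treated with Selleck FDA-approved library compounds at 0, 1, 5, 10, 25 and 50 µM, with extra concentrations added where needed, for 72 h at 37 °C. Knockdown wells also received 100 ng/mL doxycycline; control wells received DMSO without doxycycline. Viability was read by CCK-8 absorbance at 450 nm and normalised to DMSO control wells. IC50 was fitted in GraphPad Prism as a 4-parameter logistic with bottom fixed at 0 and top fixed at 1; at least 3 technical replicate wells per condition.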

Where [1] appears, read: OFD1 knockdown: no (no doxycycline).
Where [2] appears, read: OFD1 knockdown: yes (Tet-on shOFD1, 100 ng/mL doxycycline).

As to `CCCCCOC(=O)Nc1nc(=O)n([C@@H]2O[C@H](C)[C@@H](O)[C@H]2O)cc1F` [S1156], the IC50 cell viability came to 34 µM under setting [1] and 34.3 µM under setting [2].
In the case of `CC(C)c1cc(-c2n[nH]c(=O)n2-c2ccc3c(ccn3C)c2)c(O)cc1O` [S1159], the IC50 cell viability turned out to be 2.42 µM under setting [1] and 2.01 µM under setting [2].
On to `COc1cc2nccc(Oc3ccc(NC(=O)NC4CC4)c(Cl)c3)c2cc1C(N)=O` [S1164], for which the IC50 cell viability amounted to 21.1 µM under setting [1] and 19.7 µM under setting [2].
The corresponding values for `CNC(=O)c1cc(Oc2ccc(NC(=O)Nc3ccc(Cl)c(C(F)(F)F)c3)c(F)c2)ccn1` [S1178] are 1.56 µM and 1.28 µM.
The corresponding values for `CC(C)(C#N)c1cc(Cn2cncn2)cc(C(C)(C)C#N)c1` [S1188] are 47.1 µM and 59.2 µM.
The corresponding values for `C[C@@H](O[C@H]1OCCN(Cc2n[nH]c(=O)[nH]2)[C@H]1c1ccc(F)cc1)c1cc(C(F)(F)F)cc(C(F)(F)F)c1` [S1189] are 13.9 µM and 14.2 µM.
Regarding `CC(O)(CS(=O)(=O)c1ccc(F)cc1)C(=O)Nc1ccc(C#N)c(C(F)(F)F)c1` (configuration not stated) [S1190], the IC50 cell viability came to 53.5 µM under setting [1] and 45.6 µM under setting [2].
The corresponding values for `C[C@]12CC[C@@H]3c4ccc(O)cc4C[C@@H](CCCCCCCCC[S+]([O-])CCCC(F)(F)C(F)(F)F)[C@H]3[C@@H]1CC[C@@H]2O` (some centres not stated) [S1191] are 25.6 µM and 24.5 µM.
The corresponding values for `Cc1nc(=O)c2cc(CN(C)c3ccc(C(=O)N[C@@H](CCC(=O)O)C(=O)O)s3)ccc2[nH]1` [S1192] are 15.8 µM and 14.1 µM.
Regarding `O=C1CCC(N2C(=O)c3ccccc3C2=O)C(=O)N1` (configuration not stated) [S1193], the IC50 cell viability runs as follows: under setting [1], 29.9 µM; under setting [2], 28.2 µM.
The corresponding values for `C#Cc1cccc(Nc2ncnc3cc(OC)c(OCCCCCCC(=O)NO)cc23)c1` [S1194] are 1.35 µM and 1.14 µM.
As to `C=C1C[C@@H]2[C@H](CC[C@]3(C)C(=O)CC[C@@H]23)[C@@]2(C)C=CC(=O)C=C12` [S1196], the IC50 cell viability was determined as 53.5 µM under setting [1] and 50.2 µM under setting [2].
With `CCc1c2c(nc3ccc(OC(=O)N4CCC(N5CCCCC5)CC4)cc13)-c1cc3c(c(=O)n1C2)COC(=O)[C@]3(O)CC` [S1198], the IC50 cell viability came to 24.5 µM under setting [1] and 20 µM under setting [2].
For the molecule `Nc1nc(Cl)nc2c1ncn2[C@H]1C[C@H](O)[C@@H](CO)O1` [S1199], the IC50 cell viability was found to be 55.1 µM under setting [1] and 49.9 µM under setting [2].
The corresponding values for `Nc1ncn([C@H]2C[C@H](O)[C@@H](CO)O2)c(=O)n1` [S1200] are 74.8 µM and 77.2 µM.
On to `O=S(=O)(O)CCSSCCS(=O)(=O)O` [S1201], for which the IC50 cell viability came out at 82.1 µM under setting [1] and 70.3 µM under setting [2].
The corresponding values for `C[C@]12C=CC(=O)N[C@@H]1CC[C@@H]1[C@@H]2CC[C@]2(C)[C@@H](C(=O)Nc3cc(C(F)(F)F)ccc3C(F)(F)F)CC[C@@H]12` [S1202] are 2.38 µM and 2.28 µM.
The corresponding values for `COc1cc2nccc(Oc3ccc(NC(=O)Nc4cc(C)on4)c(Cl)c3)c2cc1OC` [S1207] are 10 µM and 7.5 µM.
With `COc1cccc2c1C(=O)c1c(O)c3c(c(O)c1C2=O)CC(O)(C(=O)CO)CC3OC1CC(N)C(O)C(C)O1` (configuration not stated) [S1208], the IC50 cell viability was 1.85 µM under setting [1] and 1.52 µM under setting [2].
Consider `O=c1[nH]cc(F)c(=O)[nH]1` [S1209], for which the IC50 cell viability was found to be 3.34 µM under setting [1] and 2.54 µM under setting [2].
With `CN(Cc1cnc2nc(N)nc(N)c2n1)c1ccc(C(=O)N[C@@H](CCC(=O)O)C(=O)O)cc1` [S1210], the IC50 cell viability under setting [1] is 0.47 µM and the IC50 cell viability under setting [2] is 0.39 µM.
`Cn1c(CCCC(=O)O)nc2cc(N(CCCl)CCCl)ccc21` [S1212] displayed an IC50 cell viability under setting [1] of 15.8 µM and an IC50 cell viability under setting [2] of 17 µM.
The corresponding values for `COc1nc(N)nc2c1ncn2[C@@H]1O[C@H](CO)[C@@H](O)[C@@H]1O` [S1213] are 1.66 µM and 1.5 µM.
The corresponding values for `Cc1c(N)nc(C(CC(N)=O)NCC(N)C(N)=O)nc1C(=O)NC(C(=O)NC(C)C(O)C(C)C(=O)NC(C(=O)NCCc1nc(-c2nc(C(=O)NCCC[S+](C)C)cs2)cs1)C(C)O)C(O[C@@H]1O[C@@H](CO)[C@@H](O)[C@H](O)[C@@H]1O[C@H]1O[C@H](CO)[C@@H](O)[C@H](OC(N)=O)[C@@H]1O)c1cnc[nH]1` (some centres not stated) [S1214] are 1.84 µM and 1.69 µM.
Regarding `Nc1nc(Cl)nc2c1ncn2[C@@H]1O[C@H](CO)[C@@H](O)[C@@H]1F` [S1218], the IC50 cell viability by setting is: under setting [1], 0.55 µM; under setting [2], 0.53 µM.
For the molecule `CN(C)/N=N/c1[nH]cnc1C(N)=O` [S1221], the IC50 cell viability is, setting by setting: under setting [1], 52.8 µM; under setting [2], 51.9 µM.
The corresponding values for `COc1cccc2c1C(=O)c1c(O)c3c(c(O)c1C2=O)C[C@@](O)(C(=O)CO)C[C@@H]3O[C@H]1C[C@H](N)[C@@H](O)[C@H](C)O1` [S1223] are 0.63 µM and 0.58 µM.
Take `O=C(O)C(=O)O.[NH-][C@@H]1CCCC[C@H]1[NH-].[Pt+2]` [S1224]: the IC50 cell viability came to 60.3 µM under setting [1] and 57.3 µM under setting [2].
The corresponding values for `COc1cc([C@@H]2c3cc4c(cc3[C@@H](O[C@@H]3O[C@@H]5CO[C@@H](C)O[C@H]5[C@H](O)[C@H]3O)[C@H]3COC(=O)[C@H]23)OCO4)cc(OC)c1O` [S1225] are 2.31 µM and 2.03 µM.
Take `O=C(c1ccc(OCCN2CCCCC2)cc1)c1c(-c2ccc(O)cc2)sc2cc(O)ccc12` [S1227]: the IC50 cell viability reads like this: under setting [1], 8.3 µM; under setting [2], 8.74 µM.
The corresponding values for `Nc1nc(F)nc2c1ncn2[C@@H]1O[C@H](COP(=O)(O)O)[C@@H](O)[C@@H]1O` [S1229] are 2.26 µM and 1.95 µM.
With `CC[C@@]1(O)C(=O)OCc2c1cc1n(c2=O)Cc2cc3c(CN(C)C)c(O)ccc3nc2-1` [S1231], the IC50 cell viability is, setting by setting: under setting [1], 54.5 µM; under setting [2], 49.8 µM.
The corresponding values for `N#Cc1ccc(C(c2ccc(C#N)cc2)n2cncn2)cc1` [S1235] are 12.5 µM and 12.4 µM.
The corresponding values for `Cn1nnc2c(C(N)=O)ncn2c1=O` [S1237] are 12 µM and 11.3 µM.
On to `CC[C@]1(O)C[C@H]2CN(CCc3c([nH]c4ccccc34)[C@@](C(=O)OC)(c3cc4c(cc3OC)N(C=O)[C@H]3[C@@](O)(C(=O)OC)[C@H](OC(C)=O)[C@]5(CC)C=CCN6CC[C@]43[C@@H]65)C2)C1` [S1241], for which the IC50 cell viability reads like this: under setting [1], 20.9 µM; under setting [2], 21.3 µM.
The corresponding values for `S=C(NCc1ccc2c(c1)OCO2)N1CCN(c2ncnc3c2oc2ccccc23)CC1` [S1244] are 51.5 µM and 51.9 µM.
For the molecule `CNC(=O)c1ccc(N2C(=S)N(c3ccc(C#N)c(C(F)(F)F)c3)C(=O)C2(C)C)cc1F` [S1250], the IC50 cell viability came out at 29.5 µM under setting [1] and 27.8 µM under setting [2].
The corresponding values for `Cc1ccc(-c2cc(C(F)(F)F)nn2-c2ccc(S(N)(=O)=O)cc2)cc1` [S1261] are 25.2 µM and 24.3 µM.
The corresponding values for `CCCS(=O)(=O)Nc1ccc(F)c(C(=O)c2c[nH]c3ncc(-c4ccc(Cl)cc4)cc23)c1F` [S1267] are 17 µM and 17.6 µM.
For `CN(C)c1nc(N(C)C)nc(N(C)C)n1` [S1278], the IC50 cell viability is, setting by setting: under setting [1], 2.56 µM; under setting [2], 2.43 µM.
The corresponding values for `CCCCCCNC(=O)n1cc(F)c(=O)[nH]c1=O` [S1289] are 2.36 µM and 2.4 µM.
The corresponding values for `O=c1[nH]c(=O)n([C@H]2C[C@H](O)[C@@H](CO)O2)cc1F` [S1299] are 11.5 µM and 11.4 µM.
The corresponding values for `O=c1[nH]c(=O)n(C2CCCO2)cc1F` (configuration not stated) [S1300] are 48.4 µM and 43.1 µM.
In turn, `O=P1(NCCCl)OCCCN1CCCl` (configuration not stated) [S1302] returned an IC50 cell viability under setting [1] of 53 µM and an IC50 cell viability under setting [2] of 55.2 µM.
The corresponding values for `CC(=O)O[C@]1(C(C)=O)CC[C@H]2[C@@H]3C=C(C)C4=CC(=O)CC[C@]4(C)[C@H]3CC[C@@]21C` [S1304] are 2.01 µM and 1.81 µM.
The corresponding values for `S=c1[nH]cnc2nc[nH]c12` [S1305] are 27.5 µM and 27.7 µM.
On to `CN(N=O)C(=O)NC1C(O)OC(CO)C(O)C1O` (configuration not stated) [S1312], for which the IC50 cell viability is, setting by setting: under setting [1], 30.1 µM; under setting [2], 30.4 µM.
With `C[C@@H]1C[C@H]2[C@@H]3CCC4=CC(=O)C=C[C@]4(C)[C@@]3(F)[C@@H](O)C[C@]2(C)[C@@]1(O)C(=O)CO` [S1322], the IC50 cell viability is 8.52 µM under setting [1] and 7.75 µM under setting [2].
The corresponding values for `COc1cc2nc(N3CCN(C(=O)C4COc5ccccc5O4)CC3)nc(N)c2cc1OC` (configuration not stated) [S1324] are 18.1 µM and 17.6 µM.
For `COc1cc(OC)c(/C=C/S(=O)(=O)Cc2ccc(OC)c(NCC(=O)O)c2)c(OC)c1` [S1362], the IC50 cell viability is, setting by setting: under setting [1], 2.53 µM; under setting [2], 2.01 µM.
The corresponding values for `C/C(=C\c1csc(C)n1)[C@@H]1C[C@@H]2O[C@]2(C)CCC[C@H](C)[C@H](O)[C@@H](C)C(=O)C(C)(C)[C@@H](O)CC(=O)O1` [S1364] are 0.76 µM and 0.87 µM.
